Reference: patent US10442763B2, “EBNA1 inhibitors and methods using same” (priority 2015, dated 2019)

Molecular target: T1, His-EBNA1 (DNA binding domain of EBNA1, amino acids 459-607) (Epstein-Barr virus, UniProt P03211)
T1 construct: made in house; host or cells: E. coli
Assay: Inhibition of 5'-biotin-oPL4624 binding to His-EBNA1 using Alpha Screen technology
In short: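 AlphaScreen with 15 nM E. coli-expressed His-EBNA1 (aa 459-607), 0.2 nM biotinylated oPL4624 DNA and 5 μg/mL donor and acceptor beads in 25 mM Tris pH 7.2, 160 mM NaCl, 1 mM MgCl2; compound 3.2 nM–100 μM final. Read after 2 h at RT; inhibition normalised to no-EBNA1 wells, one-site dose-response fit.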

T1 sequence (P03211 459-607): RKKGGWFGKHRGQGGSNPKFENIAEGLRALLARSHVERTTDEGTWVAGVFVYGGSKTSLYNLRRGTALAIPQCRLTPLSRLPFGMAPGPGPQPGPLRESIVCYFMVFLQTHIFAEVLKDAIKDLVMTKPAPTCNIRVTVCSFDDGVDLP

| SMILES | IC50 [µM] |
| --- | --- |
| O=C(O)c1cccc(C#Cc2ccccc2)c1-c1cnc2[nH]ccc2c1 [Entry 139] | < 1 |
| COc1ccc(OCc2ccc(C#Cc3cccc(C(=O)O)c3-c3ccc4cc[nH]c4c3)cc2)cc1 [Entry 85] | 1 to 10 |
| CCC(=O)N1CCc2cc(C#Cc3cccc(C(=O)O)c3-c3ccc4cc[nH]c4c3)ccc2C1 [Entry 79] | 1 to 10 |
| CN(C)Cc1ccc(C#Cc2cccc(C(=O)O)c2-c2ccc3cc[nH]c3c2)cc1 [Entry 156] | 10 to 100 |
| O=C(O)c1cccc(C#Cc2ccc(CN3CCN(C4CCCCC4)CC3)cc2)c1-c1ccc2cc[nH]c2c1 [Entry 165] | 10 to 100 |
| O=C(O)c1cccc(C#Cc2cnc3c(ccn3CC3CCOCC3)c2)c1-c1ccc2cc[nH]c2c1 [Entry 17] | 1 to 10 |
| O=C(O)c1cccc(C#Cc2ccc3c(ccn3CC3CCOCC3)c2)c1-c1ccc2cc[nH]c2c1 [Entry 18] | 1 to 10 |
| CN1CCN(Cc2ccc(C#Cc3cccc(C(=O)O)c3-c3ccc4[nH]ccc4c3)cc2)CC1 [Entry 182] | 1 to 10 |
